Laboratory results reported in ChEMBL document CHEMBL4229455, “Synthesis and anticancer activity of novel bisindolylhydroxymaleimide derivatives with potent GSK-3 kinase inhibition” (Bioorg Med Chem, 2018).

Assays:
[1] = molecular target: T1, Serine/threonine-protein kinase haspin (Homo sapiens, UniProt Q8TF76); test: Inhibition of recombinant human haspin kinase domain expressed in bacteria using histone H3 (1 to 21 residues) peptide as substrate in presence of [gamma-33P]ATP
T1 sequence (Q8TF76 whole entry): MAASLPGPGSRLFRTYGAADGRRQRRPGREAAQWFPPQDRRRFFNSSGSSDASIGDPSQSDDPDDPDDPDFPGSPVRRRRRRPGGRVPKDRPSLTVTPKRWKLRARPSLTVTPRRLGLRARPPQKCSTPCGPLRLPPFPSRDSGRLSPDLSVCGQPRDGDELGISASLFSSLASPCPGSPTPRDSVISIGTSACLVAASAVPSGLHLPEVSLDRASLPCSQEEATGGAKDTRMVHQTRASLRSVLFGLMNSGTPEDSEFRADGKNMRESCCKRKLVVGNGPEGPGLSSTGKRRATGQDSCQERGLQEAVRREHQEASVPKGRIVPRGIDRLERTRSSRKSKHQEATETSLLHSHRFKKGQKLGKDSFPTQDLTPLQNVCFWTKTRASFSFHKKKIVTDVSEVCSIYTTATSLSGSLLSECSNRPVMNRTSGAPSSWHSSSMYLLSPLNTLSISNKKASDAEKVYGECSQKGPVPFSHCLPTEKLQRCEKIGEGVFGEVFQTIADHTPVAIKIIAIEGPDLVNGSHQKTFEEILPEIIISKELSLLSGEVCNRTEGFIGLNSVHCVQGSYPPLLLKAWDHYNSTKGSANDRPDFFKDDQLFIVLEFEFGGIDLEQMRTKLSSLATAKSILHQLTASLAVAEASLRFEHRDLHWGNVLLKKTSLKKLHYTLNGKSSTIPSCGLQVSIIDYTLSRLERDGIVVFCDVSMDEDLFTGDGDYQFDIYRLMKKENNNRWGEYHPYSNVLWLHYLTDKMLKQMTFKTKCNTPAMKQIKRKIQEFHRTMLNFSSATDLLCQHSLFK

[2] = molecular target: Cyclin-dependent kinase 5/CDK5 activator 1 (Homo sapiens, UniProt Q00535); test: Inhibition of recombinant full length human CDK5/p25 expressed in bacteria using histone H1 as substrate in presence of [gamma-33P]ATP
CDK9/cyclin T1 = CDK9/cyclin T1 (Homo sapiens, UniProt P50750); test: Inhibition of recombinant full length human CDK9/cyclin T expressed in baculovirus infected Sf9 insect cells using YSPTSPSYSPTSPSYSPTSPSKKKK as substrate in presence of [gamma-33P]ATP
[3] = molecular target: Glycogen synthase kinase-3 (Sus scrofa, UniProt B2LUN4+I6LNT8); test: Inhibition of domestic porcine brain full length GSK-3alpha/beta using GS-1 as substrate in presence of [gamma-33P]ATP; parameters: species or system Sus scrofa domesticus
[4] = molecular target: T2, Serine/threonine-protein kinase haspin (Homo sapiens) (UniProt Q8TF76); test: Inhibition of recombinant human haspin kinase domain expressed in bacteria assessed as residual activity at 10 uM using histone H3 (1 to 21 residues) peptide as substrate in presence of [gamma-33P]ATP
T2 sequence (whole entry): T1 sequence (Q8TF76 whole entry)

[5] = molecular target: CDK2/Cyclin A2 (Homo sapiens) (UniProt P24941+P20248); test: Inhibition of full length human CDK2/cyclin A assessed as residual activity at 10 uM using histone H1 as substrate in presence of [gamma-33P]ATP; type: protein-complex assay
[6] = molecular target: Serine/threonine-protein kinase pim-1 (Homo sapiens, UniProt P11309); test: Inhibition of recombinant full length human PIM1 expressed in bacteria assessed as residual activity at 10 uM using histone H1 as substrate in presence of [gamma-33P]ATP
NCI-H23 = test: Cytotoxicity against human NCI-H23 cells assessed as cell growth at 10 uM after 48 hrs by SRB assay relative to control; type: functional; conditions: NCI-H23, 48 h, read-out: Activity
HCT-15 = test: Cytotoxicity against human HCT15 cells assessed as cell growth at 10 uM after 48 hrs by SRB assay relative to control; type: functional; conditions: HCT-15, 48 h, read-out: Activity
KM12 = test: Cytotoxicity against human KM12 cells assessed as cell growth at 10 uM after 48 hrs by SRB assay relative to control; type: functional; conditions: KM12, 48 h, read-out: Activity
SNB-75 = test: Cytotoxicity against human SNB75 cells assessed as cell growth at 10 uM after 48 hrs by SRB assay relative to control; type: functional; conditions: SNB-75, 48 h, read-out: Activity
Malme-3M = test: Cytotoxicity against human MALME-3M cells assessed as cell growth at 10 uM after 48 hrs by SRB assay relative to control; type: functional; conditions: read-out: Activity
SK-MEL-2 = test: Cytotoxicity against human SK-MEL-2 cells assessed as cell growth at 10 uM after 48 hrs by SRB assay relative to control; type: functional; conditions: SK-MEL-2, 48 h, read-out: Activity
SK-MEL-5 = test: Cytotoxicity against human SK-MEL-5 cells assessed as cell growth at 10 uM after 48 hrs by SRB assay relative to control; type: functional; conditions: SK-MEL-5, 48 h, read-out: Activity
UACC-62 = test: Cytotoxicity against human UACC62 cells assessed as cell growth at 10 uM after 48 hrs by SRB assay relative to control; type: functional; conditions: UACC-62, 48 h, read-out: Activity
OVCAR-3 = test: Cytotoxicity against human OVCAR3 cells assessed as cell growth at 10 uM after 48 hrs by SRB assay relative to control; type: functional; conditions: OVCAR-3, 48 h, read-out: Activity
OVCAR-8 = test: Cytotoxicity against human OVCAR8 cells assessed as cell growth at 10 uM after 48 hrs by SRB assay relative to control; type: functional; conditions: OVCAR-8, 48 h, read-out: Activity
NCI/ADR-RES = test: Cytotoxicity against human NCI-ADR-RES cells assessed as cell growth at 10 uM after 48 hrs by SRB assay relative to control; type: functional; conditions: read-out: Activity
ACHN = test: Cytotoxicity against human ACHN cells assessed as cell growth at 10 uM after 48 hrs by SRB assay relative to control; type: functional; conditions: read-out: Activity
RXF 393 = test: Cytotoxicity against human RXF393 cells assessed as cell growth at 10 uM after 48 hrs by SRB assay relative to control; type: functional; conditions: RXF 393, 48 h, read-out: Activity
UO-31 = test: Cytotoxicity against human UO31 cells assessed as cell growth at 10 uM after 48 hrs by SRB assay relative to control; type: functional; conditions: UO-31, 48 h, read-out: Activity
PC-3 = test: Cytotoxicity against human PC3 cells assessed as cell growth at 10 uM after 48 hrs by SRB assay relative to control; type: functional; conditions: PC-3, 48 h, read-out: Activity
MCF7 = test: Cytotoxicity against human MCF7 cells assessed as cell growth at 10 uM after 48 hrs by SRB assay relative to control; type: functional; conditions: MCF7, 48 h, read-out: Activity
Hs-578T = test: Cytotoxicity against human Hs 578T cells assessed as cell growth at 10 uM after 48 hrs by SRB assay relative to control; type: functional; conditions: read-out: Activity
BT-549 = test: Cytotoxicity against human BT549 cells assessed as cell growth at 10 uM after 48 hrs by SRB assay relative to control; type: functional; conditions: BT-549, 48 h, read-out: Activity

Chain of Serine/threonine-protein kinase pim-1 (P11309 whole entry, looked up): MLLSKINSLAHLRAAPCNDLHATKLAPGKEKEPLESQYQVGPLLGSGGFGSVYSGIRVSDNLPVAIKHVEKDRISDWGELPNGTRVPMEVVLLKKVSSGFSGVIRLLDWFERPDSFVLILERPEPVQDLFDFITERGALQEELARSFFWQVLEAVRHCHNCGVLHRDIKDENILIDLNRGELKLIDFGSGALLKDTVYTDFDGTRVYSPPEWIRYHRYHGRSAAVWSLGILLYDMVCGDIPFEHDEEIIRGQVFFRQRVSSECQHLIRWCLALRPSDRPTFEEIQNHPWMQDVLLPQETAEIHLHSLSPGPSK
Chain of Cyclin-dependent kinase 5/CDK5 activator 1 (Q00535 whole entry): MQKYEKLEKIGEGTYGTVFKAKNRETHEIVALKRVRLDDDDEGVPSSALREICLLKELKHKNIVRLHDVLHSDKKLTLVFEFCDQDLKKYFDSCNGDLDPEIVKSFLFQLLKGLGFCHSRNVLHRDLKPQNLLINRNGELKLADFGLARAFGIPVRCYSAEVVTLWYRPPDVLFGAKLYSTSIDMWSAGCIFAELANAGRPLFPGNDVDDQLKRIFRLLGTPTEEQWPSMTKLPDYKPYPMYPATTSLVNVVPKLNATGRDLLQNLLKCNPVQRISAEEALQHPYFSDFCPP
Chain of Cyclin-dependent kinase 5/CDK5 activator 1 (Q15078 whole entry, further chain): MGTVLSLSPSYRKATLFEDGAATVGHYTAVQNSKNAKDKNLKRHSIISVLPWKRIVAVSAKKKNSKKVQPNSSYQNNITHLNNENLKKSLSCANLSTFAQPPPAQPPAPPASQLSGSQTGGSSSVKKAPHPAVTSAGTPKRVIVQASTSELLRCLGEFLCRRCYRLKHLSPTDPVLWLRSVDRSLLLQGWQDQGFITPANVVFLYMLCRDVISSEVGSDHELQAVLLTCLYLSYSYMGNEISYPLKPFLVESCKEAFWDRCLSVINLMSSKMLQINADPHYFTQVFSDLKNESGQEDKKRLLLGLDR
Chain of CDK9/cyclin T1 (O60563 whole entry): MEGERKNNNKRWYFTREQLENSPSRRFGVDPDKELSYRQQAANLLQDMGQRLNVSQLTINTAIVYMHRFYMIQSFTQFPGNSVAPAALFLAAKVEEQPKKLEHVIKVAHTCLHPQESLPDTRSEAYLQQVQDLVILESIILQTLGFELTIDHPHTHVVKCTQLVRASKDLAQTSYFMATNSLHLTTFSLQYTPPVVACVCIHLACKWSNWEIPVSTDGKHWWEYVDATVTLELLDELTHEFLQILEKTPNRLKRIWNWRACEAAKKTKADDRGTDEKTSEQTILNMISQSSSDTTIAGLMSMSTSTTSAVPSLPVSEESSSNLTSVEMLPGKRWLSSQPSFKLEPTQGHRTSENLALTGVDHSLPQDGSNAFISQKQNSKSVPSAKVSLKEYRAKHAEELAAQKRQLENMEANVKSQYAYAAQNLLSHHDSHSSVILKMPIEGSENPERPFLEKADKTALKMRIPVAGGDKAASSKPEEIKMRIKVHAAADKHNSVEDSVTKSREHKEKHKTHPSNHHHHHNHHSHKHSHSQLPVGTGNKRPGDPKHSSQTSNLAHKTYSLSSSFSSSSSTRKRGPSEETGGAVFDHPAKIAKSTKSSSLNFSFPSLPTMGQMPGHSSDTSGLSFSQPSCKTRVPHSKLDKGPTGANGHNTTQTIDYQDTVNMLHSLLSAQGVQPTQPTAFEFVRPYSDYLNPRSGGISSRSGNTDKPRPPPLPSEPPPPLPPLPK
Chain of CDK9/cyclin T1 (P50750 whole entry): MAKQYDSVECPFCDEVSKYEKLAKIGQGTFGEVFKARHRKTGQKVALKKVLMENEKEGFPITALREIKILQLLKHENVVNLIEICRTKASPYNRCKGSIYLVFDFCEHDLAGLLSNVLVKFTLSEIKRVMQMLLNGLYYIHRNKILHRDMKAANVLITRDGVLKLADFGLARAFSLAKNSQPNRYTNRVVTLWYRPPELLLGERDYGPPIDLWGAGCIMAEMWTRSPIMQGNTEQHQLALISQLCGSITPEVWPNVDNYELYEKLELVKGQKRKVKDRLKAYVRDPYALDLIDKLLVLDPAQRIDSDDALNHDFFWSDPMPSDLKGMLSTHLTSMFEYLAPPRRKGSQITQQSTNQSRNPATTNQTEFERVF

| Compound | IC50 [1] [µM] | IC50 [2] [µM] | IC50 (CDK9/cyclin T1) [µM] | IC50 [3] [µM] | Activity [4] [%] | Activity [5] [%] | Activity [6] [%] | growth at 10 µM (NCI-H23) [%] | growth at 10 µM (HCT-15) [%] | growth at 10 µM (KM12) [%] | growth at 10 µM (SNB-75) [%] | growth at 10 µM (Malme-3M) [%] | growth at 10 µM (SK-MEL-2) [%] | growth at 10 µM (SK-MEL-5) [%] | growth at 10 µM (UACC-62) [%] | growth at 10 µM (OVCAR-3) [%] | growth at 10 µM (OVCAR-8) [%] | growth at 10 µM (NCI/ADR-RES) [%] | growth at 10 µM (ACHN) [%] | growth at 10 µM (RXF 393) [%] | also measured |
| --- | --- | --- | --- | --- | --- | --- | --- | --- | --- | --- | --- | --- | --- | --- | --- | --- | --- | --- | --- | --- | --- |
| CC(C)n1cc(C2=C(c3cn(C)c4ccccc34)C(=O)N(O)C2=O)c2ccccc21 | > 10 | > 10 | 1.5 | 0.2 | 127 | 23 | 28 | 81.8 | 96.9 | 87.4 | 84.9 | 89 | 86.6 | 76.2 | 78.2 | 87.6 | 94.8 | 92.4 | 88 | 89.2 | growth at 10 µM (UO-31): 56.4%; growth at 10 µM (PC-3): 88.4%; growth at 10 µM (MCF7): 91.6%; growth at 10 µM (Hs-578T): 91.2%; growth at 10 µM (BT-549): 93.2% |
| CC(C)n1cc(C2=C(c3c[nH]c4ccccc34)C(=O)N(O)C2=O)c2ccccc21 | > 10 | > 10 | > 10 | 1.5 | 123 | 71 | 24 | 88.2 | 99.9 | 88.3 | 82.6 | 102 | 86.8 | 98.5 | 90 | 92.7 | 107 | 102 | 99.6 | 100 | growth at 10 µM (UO-31): 67.9%; growth at 10 µM (PC-3): 99.7%; growth at 10 µM (MCF7): 77.1%; growth at 10 µM (Hs-578T): 111%; growth at 10 µM (BT-549): 99.7% |
| N#CCCCCCn1cc(C2=C(c3cn(CCCCCC#N)c4ccccc34)C(=O)N(O)C2=O)c2ccccc21 | > 10 | > 10 | > 10 | 0.75 | 99 | 78 | 78 | 38 to 76.9 | 21 to 70.8 | 25 to 65.7 | 14 to 67.7 | 55 | 8 to 68.7 | 2 to 39.4 | 14 to 53.3 | 13 to 50.6 | 55 to 87.6 | 62 to 96.3 | 45 to 81.7 | 2 to 73.2 | growth at 10 µM (UO-31): 23 to 43.8%; growth at 10 µM (PC-3): 29 to 70.3%; growth at 10 µM (MCF7): 14 to 39.9%; growth at 10 µM (Hs-578T): 25 to 80%; growth at 10 µM (BT-549): 16 to 56% |
| Cn1cc(C2=C(c3c[nH]c4ccccc34)C(=O)N(O)C2=O)c2ccccc21 | > 10 | > 10 | 2 | 0.2 | 112 | 77 | 8 | 76.9 | 74.8 | 81.7 | 72.5 | 68.7 | 76.4 | 72 | 77.4 | 84.7 | 95.6 | 89.5 | 77.9 | 86.3 | growth at 10 µM (UO-31): 40.5%; growth at 10 µM (PC-3): 78.7%; growth at 10 µM (MCF7): 30.9%; growth at 10 µM (Hs-578T): 96.3%; growth at 10 µM (BT-549): 82.7% |
| N#CCCCCCn1cc(C2=C(c3cn(CCCCCC#N)c4ccccc34)C(=O)NC2=O)c2ccccc21 | > 10 | > 10 | 0.42 | 0.12 | 134 | 36 | 54 | 97.1 | 69.4 | 81 | 47.2 | 121 | 96.5 | 78.7 | 99.3 | 72.7 | 89.9 | 79 | 87 | 62.1 | growth at 10 µM (UO-31): 72.7%; growth at 10 µM (PC-3): 58%; growth at 10 µM (MCF7): 48.9%; growth at 10 µM (Hs-578T): 59.7%; growth at 10 µM (BT-549): 73.6% |
